The target in data set [1] is von Hippel-Lindau disease tumor suppressor (Homo sapiens, UniProt P40337). Briefly: Inhibition of VHL (unknown origin) by fluorescence polarization assay. In general terms: Polarisation of emitted light reports the rotation of a fluorescent probe.
Data set [2] is described as follows: Stability in rat blood assessed as parent compound remaining after 4 hrs. Format: ADME, tissue-based. To be noted: read-out: Stability.
A short description of data set [3]: Plasma clearance in mouse at iv dose. Format: ADME, organism-based.
Data set [4] can be described thus: Oral bioavailability in mouse. Format: ADME, organism-based. To be noted: in vivo.
For another data set, the system named is SJSA-1. Briefly: cells. To be noted: Homo sapiens.
The target of data set [5] is T1, E3 ubiquitin-protein ligase XIAP (Homo sapiens, UniProt P98170). In words: Inhibition of XIAP-BIR2 domain (unknown origin).
T1 sequence (P98170 whole entry, the tested form may be a part): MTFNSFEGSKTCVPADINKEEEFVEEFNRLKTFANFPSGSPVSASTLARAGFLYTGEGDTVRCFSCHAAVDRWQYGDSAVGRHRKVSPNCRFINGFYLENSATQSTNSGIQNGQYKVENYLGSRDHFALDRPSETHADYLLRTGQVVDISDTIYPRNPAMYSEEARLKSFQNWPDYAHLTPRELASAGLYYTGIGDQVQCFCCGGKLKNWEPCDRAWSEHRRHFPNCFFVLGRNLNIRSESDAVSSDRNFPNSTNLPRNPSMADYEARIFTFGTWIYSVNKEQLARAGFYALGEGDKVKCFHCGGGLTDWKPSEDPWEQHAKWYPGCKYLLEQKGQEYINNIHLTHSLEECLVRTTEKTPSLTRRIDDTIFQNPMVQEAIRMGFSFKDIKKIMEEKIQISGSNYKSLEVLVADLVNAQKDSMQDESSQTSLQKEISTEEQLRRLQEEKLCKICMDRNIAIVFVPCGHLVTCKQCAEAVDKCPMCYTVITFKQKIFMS
Data set [6] deals with T1, E3 ubiquitin-protein ligase XIAP. Briefly: Inhibition of XIAP-BIR3 domain (unknown origin).

Chain of von Hippel-Lindau disease tumor suppressor (P40337 whole entry): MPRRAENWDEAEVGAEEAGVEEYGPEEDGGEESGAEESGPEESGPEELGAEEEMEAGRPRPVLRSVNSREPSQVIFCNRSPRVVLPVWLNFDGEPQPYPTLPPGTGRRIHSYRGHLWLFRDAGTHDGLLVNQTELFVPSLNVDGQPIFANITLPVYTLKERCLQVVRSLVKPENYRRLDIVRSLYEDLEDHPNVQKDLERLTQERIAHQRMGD

Turning to `Cc1ncsc1-c1ccc(CNC(=O)[C@@H]2C[C@@H](O)CN2C(=O)c2cccc(N)c2C)cc1`, it took 670 nM to reach half-maximal inhibition in data set [1] (IC50). This lies in the sub-micromolar range.

Take `Cc1cc(CC(=O)N2C[C@H](O)C[C@H]2C(=O)NCc2ccccc2Cl)on1`: the IC50 (as a rule, the midpoint of a concentration-inhibition curve) in data set [1] is 117000 nM.

As to `CN[C@@H](C)C(=O)N[C@H]1COc2ccccc2N(Cc2c(OC)ccc3cc(Br)ccc23)C1=O`, the remaining at 4 h in data set [2] is 7%. Besides, the clearance (usually a measure of how efficiently the substance is removed, as volume per time) in data set [3] came out at 521 mL/min/kg.

The compound `CN[C@@H](C)C(=O)N[C@@H]1C(=O)N(Cc2c(C)ccc3ccccc23)c2ccc(C#N)cc2N(C(C)=O)[C@H]1C` came in with a clearance in data set [3] of 4.3 mL/min/kg. In addition, the bioavailability (in general, the share of a dose that reaches the circulation, judged against a reference dose that is usually intravenous) in data set [4] was found to be 28%.

In the data set with SJSA-1, `CC(C)(C)C[C@@H]1N[C@@H](C(=O)NCCN2CCOCC2)[C@H](c2cccc(Cl)c2F)[C@@]12C(=O)Nc1cc(Cl)ccc12` displayed an IC50 of 500 nM.

For the compound `CN[C@@H](C)C(=O)N[C@H]1CCc2ccccc2N(Cc2c(OC)ccc3cc(Br)ccc23)C1=O`, the IC50 in data set [5] was 194 nM; in data set [6], above 54000 nM. The remaining at 4 h in data set [2] stood at 40%. This compound showed a clearance in data set [3] of 155 mL/min/kg.

`CC(C)(C)C[C@@H]1N[C@@H](C(=O)N[C@H]2CC[C@H](O)CC2)[C@H](c2cccc(Cl)c2F)[C@@]12C(=O)Nc1cc(Cl)ccc12` came in with an IC50 with SJSA-1 of 92 nM.

Consider `CN[C@@H](C)C(=O)NC1C(=O)N(Cc2c(C#N)n(-c3ccccc3C#N)c3ccccc23)c2ccccc2CC12CCOCC2` (some centres undefined), for which the IC50 was 39 nM in data set [5] and 3100 nM in data set [6]. This compound gave a clearance in data set [3] of 41 mL/min/kg.

On to `CN[C@@H](C)C(=O)NC1C(=O)N(Cc2c(OC)ccc3cc(Br)ccc23)c2ccccc2CC12CCOCC2` (some centres undefined), for which the figures for the IC50 in data set [5] and in data set [6] were 65 nM and 24000 nM, respectively. Also, the remaining at 4 h in data set [2] was 88%. Besides, the clearance in data set [3] was found to be 60 mL/min/kg.

The values are drawn from ChEMBL document CHEMBL4619711, “Medicinal Chemistry of Inhibiting RING-Type E3 Ubiquitin Ligases” (J Med Chem, 2020).
